According to patent US20230026696A1, “TRPV4 RECEPTOR LIGANDS” (UNIVERSITY OF UTAH RESEARCH FOUNDATION, priority 2019, published 2023):
Counter-ions that a name gives are not always drawn.

What follows are compounds tested against T1, human TRPV4 (Homo sapiens, UniProt Q9HBA0) (assay: Fluorometric cell-based Ca2+ flux assay, HEK-293 cells stably overexpressing human TRPV4). Details: HEK-293 stably overexpressing human TRPV4; agonist GSK1016790A 30 nM.
T1 construct: expressed in transfected cells
T1 sequence (Q9HBA0 whole entry): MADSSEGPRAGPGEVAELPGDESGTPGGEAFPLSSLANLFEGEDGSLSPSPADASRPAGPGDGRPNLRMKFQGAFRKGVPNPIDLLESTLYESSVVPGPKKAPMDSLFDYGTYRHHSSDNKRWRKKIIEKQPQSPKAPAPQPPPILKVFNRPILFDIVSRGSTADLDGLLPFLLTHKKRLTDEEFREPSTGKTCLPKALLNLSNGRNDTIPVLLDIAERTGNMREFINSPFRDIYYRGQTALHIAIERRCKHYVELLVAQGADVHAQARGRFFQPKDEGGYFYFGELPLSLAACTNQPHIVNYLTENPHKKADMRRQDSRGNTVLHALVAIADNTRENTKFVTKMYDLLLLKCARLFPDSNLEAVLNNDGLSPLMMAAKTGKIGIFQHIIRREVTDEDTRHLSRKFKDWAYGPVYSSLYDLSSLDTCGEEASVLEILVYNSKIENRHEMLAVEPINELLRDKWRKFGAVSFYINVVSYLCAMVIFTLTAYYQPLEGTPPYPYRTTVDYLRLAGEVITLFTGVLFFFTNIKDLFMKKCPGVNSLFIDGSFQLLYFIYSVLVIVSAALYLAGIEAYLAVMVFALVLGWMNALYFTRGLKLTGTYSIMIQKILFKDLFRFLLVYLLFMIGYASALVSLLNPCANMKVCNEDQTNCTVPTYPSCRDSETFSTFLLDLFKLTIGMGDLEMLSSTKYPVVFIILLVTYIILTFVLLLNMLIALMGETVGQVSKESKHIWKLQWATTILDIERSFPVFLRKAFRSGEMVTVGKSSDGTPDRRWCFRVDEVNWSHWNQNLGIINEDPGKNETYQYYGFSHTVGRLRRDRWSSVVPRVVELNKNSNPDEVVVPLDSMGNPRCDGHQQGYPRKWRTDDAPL
Protocol: Fluorometric cell-based Ca^2+ flux assays were performed to assess TRPV4 antagonist activity and determine potency (IC50 values) in human embryonic kidney-293 cells (HEK-293) that stably overexpress human TRPV4. The assays were performed according to methods described in: Deering-Rice, C. E., Johansen, M. E., Roberts, J. K., Thomas, K. C., Romero, E. G., Lee, J., Yost, G. S., Veranth, J. M., and Reilly, C. A. (2012), Mol. Pharmacol. 81(3), 411-419; Shapiro, D., Deering-Rice, C. E., Romero, E. G., Hughen, R. W., Light, A. R., Veranth, J. M., and Reilly, C. A. (2013), Chem Res. Toxicol., 26, 750-758; and Deering-Rice, C. E., Mitchell, V. K., Romero, E. G., Abdel Aziz, M. H., and Reilly, C. A. (2014), Pharmacol. Res. & Perspectives. 2(5), 1-10.
The HEK-293 cells stably overexpressing human TRPV4 were grown to confluence in 2% (w/v) gelatin-coated 96-well plates in DMEM:F12 media supplemented with 5% fetal bovine serum, 1× penicillin/streptomycin (Invitrogen) and Geneticin (300 μg/mL).
The HEK-293 cells were prepared for assay by replacing the growth media with a 1:1 solution of LHC-9 and Fluo 4-Direct (Invitrogen) reagent containing Fluo 4-AM, pluronic F-127, probenecid, and a proprietary quencher dye. The cells were then incubated at 37° C. for 1 h in a cell culture incubator. The cells were subsequently washed by replacing the loading solution with LHC-9 containing 1 mM water-soluble probenecid (Invitrogen), 750 μM Trypan Red (ATT Bioquest), and a test compound (at various concentrations). The cells were incubated for an additional 30 minutes at 37° C. to allow for Fluo 4-AM cleavage and activation, as well as equilibration to both the test compounds and Fluo 4.
An agonist treatment solution (90 nM GSK1016790A, a potent activator of TRPV4) was prepared in LHC9 at 3× concentration and 25 μL was added to 50 μL of media on the cells in 96 well plates, providing a final concentration of 30 nM. Changes in cellular fluorescence were monitored with a BMG Labtech NOVOStar fluorescence plate reader for 1 minute at 37° C. Data were quantified as the maximum rate of change in fluorescence intensity (max ΔF/s), corrected for media only treatment (negative control), and represented as the percentage of response relative to the no antagonist control. A minimum of three replicates were used for each treatment condition, with a minimum of 8 concentrations to derive the IC50 values reported for each antagonist. The IC50 values for each antagonist, which are shown in Table 4 below, were calculated according to methods described in the assays were performed according to methods described in: Deering-Rice, C. E., Johansen, M. E., Roberts, J. K., Thomas, K. C., Romero, E. G., Lee, J., Yost, G. S., Veranth, J. M., and Reilly, C. A. (2012), Mol. Pharmacol. 81(3), 411-419; Shapiro, D., Deering-Rice, C. E., Romero, E. G., Hughen, R. W., Light, A. R., Veranth, J. M., and Reilly, C. A. (2013), Chem Res. Toxicol., 26, 750-758; and Deering-Rice, C. E., Mitchell, V. K., Romero, E. G., Abdel Aziz, M. H., and Reilly, C. A. (2014), Pharmacol. Res. & Perspectives. 2(5), 1-10.

Point of comparison: `C[C@@H](O)CNCC1(COc2ccc(C#N)c(F)c2)CN(S(=O)(=O)c2ccc(Cl)cc2Cl)C1` [Compound 30, (R)-4-((1-((2,4-Dichlorophenyl)sulfonyl)-3-(((2-hydroxypropyl)amino)methyl)azetidin-3-yl)methoxy)-2-fluorobenzonitrile hydrochloride], IC50 0.3 nM. Against it:
- C[C@H](O)CNCC1(COc2ccc(C#N)c(F)c2)CN(S(=O)(=O)c2ccc(Cl)cc2Cl)C1 [Compound 31, (S)-4-((1-((2,4-dichlorophenyl)sulfonyl)-3-(((2-hydroxypropyl)amino)methyl)azetidin-3-yl)methoxy)-2-fluorobenzonitrile hydrochloride] — within 1.5-fold, 0.4 nM
- CC(CO)NCC1(COc2ccc(C#N)c(F)c2)CN(S(=O)(=O)c2ccc(Cl)cc2Cl)C1 (stereo not drawn) [Compound 32, 4-((1-((2,4-Dichlorophenyl)sulfonyl)-3-(((1-hydroxypropan-2-yl)amino)methyl)azetidin-3-yl)methoxy)-2-fluorobenzonitrile hydrochloride] — the same, 0.3 nM
- N#Cc1ccc(OCC2(CNCC(O)CO)CN(S(=O)(=O)c3ccc(Cl)cc3Cl)C2)cc1F (stereo not drawn) [Compound 33, 4-((1-((2,4-Dichlorophenyl)sulfonyl)-3-(((2,3-dihydroxypropyl)amino)methyl)azetidin-3-yl)methoxy)-2-fluorobenzonitrile hydrochloride] — the same, 0.3 nM
- CC(CO)CNCC1(COc2ccc(C#N)c(F)c2)CN(S(=O)(=O)c2ccc(Cl)cc2Cl)C1 (stereo not drawn) [Compound 34, 4-((1-((2,4-Dichlorophenyl)sulfonyl)-3-(((3-hydroxy-2-methylpropyl)amino)methyl)azetidin-3-yl)methoxy)-2-fluorobenzonitrile hydrochloride] — within 1.5-fold, 0.2 nM
- CC(O)CCNCC1(COc2ccc(C#N)c(F)c2)CN(S(=O)(=O)c2ccc(Cl)cc2Cl)C1 (stereo not drawn) [Compound 35, 4-((1-((2,4-dichlorophenyl)sulfonyl)-3-(((3-hydroxybutyl)amino)methyl)azetidin-3-yl)methoxy)-2-fluorobenzonitrile hydrochloride] — 2.3-fold higher, 0.7 nM
- N#CCCNCC1(COc2ccc(C#N)c(F)c2)CN(S(=O)(=O)c2ccc(Cl)cc2Cl)C1 [Compound 36, 4-((3-(((2-Cyanoethyl)amino)methyl)-1-((2,4-dichlorophenyl)sulfonyl)azetidin-3-yl)methoxy)-2-fluorobenzonitrile] — 33-fold higher, 10 nM
- CCOC(=O)CCNCC1(COc2ccc(C#N)c(F)c2)CN(S(=O)(=O)c2ccc(Cl)cc2Cl)C1 [Compound 37, Ethyl 3-(((3-((4-Cyano-3-fluorophenoxy)methyl)-1-((2,4-dichlorophenyl)sulfonyl)azetidin-3-yl)methyl)amino)propanoate hydrochloride] — 11-fold higher, 3.3 nM
- N#Cc1ccc(OCC2(CN[C@H]3C[C@@H](O)C3)CN(S(=O)(=O)c3ccc(Cl)cc3Cl)C2)cc1F [Compound 38, 4-((1-((2,4-Dichlorophenyl)sulfonyl)-3-((((cis)-3-hydroxycyclobutyl)amino)methyl)azetidin-3-yl)methoxy)-2-fluorobenzonitrile hydrochloride] — 6-fold higher, 1.8 nM
- N#Cc1ccc(OCC2(CN[C@H]3CC[C@@H](O)CC3)CN(S(=O)(=O)c3ccc(Cl)cc3Cl)C2)cc1F [Compound 39, 4-((1-((2,4-Dichlorophenyl)sulfonyl)-3-((((cis)-4-hydroxycyclohexyl)amino)methyl)azetidin-3-yl)methoxy)-2-fluorobenzonitrile hydrochloride] — 4.3-fold higher, 1.3 nM
- N#Cc1ccc(OCC2(CNC[C@H]3CCCO3)CN(S(=O)(=O)c3ccc(Cl)cc3Cl)C2)cc1F [Compound 40, (R)-4-((1-((2,4-dichlorophenyl)sulfonyl)-3-((((tetrahydrofuran-2-yl)methyl)amino)methyl)azetidin-3-yl)methoxy)-2-fluorobenzonitrile hydrochloride] — 45-fold higher, 13.4 nM
- N#Cc1ccc(OCC2(CN[C@H]3CC[C@H](O)CC3)CN(S(=O)(=O)c3ccc(Cl)cc3Cl)C2)cc1F [Compound 41, 4-((1-((2,4-Dichlorophenyl)sulfonyl)-3-((((trans)-4-hydroxycyclohexyl)amino)methyl)azetidin-3-yl)methoxy)-2-fluorobenzonitrile hydrochloride] — the same, 0.3 nM
- N#Cc1ccc(OCC2(CN[C@H]3C[C@H](O)C3)CN(S(=O)(=O)c3ccc(Cl)cc3Cl)C2)cc1F [Compound 42, 4-((1-((2,4-Dichlorophenyl)sulfonyl)-3-((((trans)-3-hydroxycyclobutyl)amino)methyl)azetidin-3-yl)methoxy)-2-fluorobenzonitrile hydrochloride] — 4.3-fold higher, 1.3 nM
- N#Cc1ccc(OCC2(CN)CN(S(=O)(=O)c3ccc(Cl)cc3Cl)C2)cc1F [Compound 44, 4-((3-(Aminomethyl)-1-((2,4-dichlorophenyl)sulfonyl)azetidin-3-yl)methoxy)-2-fluorobenzonitrile] — 29-fold higher, 8.7 nM
- CC(=O)NCC1(COc2ccc(C#N)c(F)c2)CN(S(=O)(=O)c2ccc(Cl)cc2Cl)C1 [Compound 45, N-((3-((4-Cyano-3-fluorophenoxy)methyl)-1-((2,4-dichlorophenyl)sulfonyl)azetidin-3-yl)methyl)acetamide] — 10000-fold higher, 3000 nM
- N#Cc1ccc(OCC2(CNC(=O)CN)CN(S(=O)(=O)c3ccc(Cl)cc3Cl)C2)cc1F [Compound 46, 2-Amino-N-((3-((4-cyano-3-fluorophenoxy)methyl)-1-((2,4-dichlorophenyl)sulfonyl)azetidin-3-yl)methyl)acetamide] — 170-fold higher, 52 nM
- N#Cc1ccc(OCC2(CNC(=O)CO)CN(S(=O)(=O)c3ccc(Cl)cc3Cl)C2)cc1F [Compound 47, N-((3-((4-Cyano-3-fluorophenoxy)methyl)-1-((2,4-dichlorophenyl)sulfonyl)azetidin-3-yl)methyl)-2-hydroxyacetamide] — 1200-fold higher, 348 nM
- CNCC(=O)NCC1(COc2ccc(C#N)c(F)c2)CN(S(=O)(=O)c2ccc(Cl)cc2Cl)C1 [Compound 48, N-((3-((4-Cyano-3-fluorophenoxy)methyl)-1-((2,4-dichlorophenyl)sulfonyl)azetidin-3-yl)methyl)-2-(methylamino)acetamide] — 840-fold higher, 252 nM
- N#Cc1ccc(OCC2(CNS(=O)(=O)CCN)CN(S(=O)(=O)c3ccc(Cl)cc3Cl)C2)cc1F [Compound 49, 2-Amino-N-((3-((4-cyano-3-fluorophenoxy)methyl)-1-((2,4-dichlorophenyl)sulfonyl)azetidin-3-yl)methyl)ethane-1-sulfonamide] — 370-fold higher, 110 nM
- N#Cc1ccc(OCC2(CN3CCOCC3)CN(S(=O)(=O)c3ccc(Cl)cc3Cl)C2)cc1F [Compound 50, 4-((1-((2,4-Dichlorophenyl)sulfonyl)-3-(morpholinomethyl)azetidin-3-yl)methoxy)-2-fluorobenzonitrile hydrochloride] — 2600-fold higher, 794 nM
- CC(C)(C)OC(=O)NC1(COc2ccc(C#N)c(F)c2)CN(S(=O)(=O)c2ccc(Cl)cc2Cl)C1 [Compound 51, tert-Butyl (3-((4-cyano-3-fluorophenoxy)methyl)-1-((2,4-dichlorophenyl)sulfonyl)azetidin-3-yl)carbamate] — 11000-fold higher, 3350 nM
- CC(=O)NC1(COc2ccc(C#N)c(F)c2)CN(S(=O)(=O)c2ccc(Cl)cc2Cl)C1 [Compound 53, N-(3-((4-Cyano-3-fluorophenoxy)methyl)-1-((2,4-dichlorophenyl)sulfonyl)azetidin-3-yl)acetamide] — 290-fold higher, 88 nM
- CN(C)C1(COc2ccc(C#N)c(F)c2)CN(S(=O)(=O)c2ccc(Cl)cc2Cl)C1 [Compound 54, 4-((1-((2,4-Dichlorophenyl)sulfonyl)-3-(dimethylamino)azetidin-3-yl)methoxy)-2-fluorobenzonitrile] — 4100-fold higher, 1240 nM
- N#Cc1ccc(OCC2(NC(=O)CN)CN(S(=O)(=O)c3ccc(Cl)cc3Cl)C2)cc1F [Compound 55, 2-Amino-N-(3-((4-cyano-3-fluorophenoxy)methyl)-1-((2,4-dichlorophenyl)sulfonyl)azetidin-3-yl)acetamide] — 77-fold higher, 23 nM
